System: 885724-159-R-J1-PDC KRAS PDC multicell spheroid viability
Assay: Anticancer human tumor 885724-159-R-J1-PDC patient-derived pancreatic adenocarcinoma cell line growth inhibition [KRAS2]
Conditions: for IC50: curve of first compound; for viability, T/C: stronger effect = lower value; active = viability on the fitted dose curve at most 10% of control; inactive = the rest
Procedure, shortened: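 KRAS-mutant tumor cells were grown as spheroids with HUVEC endothelial cells and human MSCs as stroma. Targeted agents were tested alone and with KRAS pathway inhibitors. Doses started at or near clinical Cmax, or 10 microM, descending half-log.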

[1] = second compound 0.1 µM, first compound 0.0316 µM
[2] = second compound 0.1 µM, first compound 0.1 µM
[3] = second compound 0.1 µM, first compound 0.316 µM
[4] = second compound 0.1 µM, first compound 1 µM
[5] = second compound 0.1 µM, first compound 3.16 µM
[6] = second compound 0.316 µM, first compound 0.0316 µM
[7] = second compound 0.316 µM, first compound 0.1 µM
[8] = second compound 0.316 µM, first compound 0.316 µM
[9] = second compound 0.316 µM, first compound 1 µM
[10] = second compound 0.316 µM, first compound 3.16 µM
[11] = second compound 1 µM, first compound 0.0316 µM
[12] = second compound 1 µM, first compound 0.1 µM
[13] = second compound 1 µM, first compound 0.316 µM
[14] = second compound 1 µM, first compound 1 µM
[15] = second compound 1 µM, first compound 3.16 µM
[16] = second compound 3.16 µM, first compound 0.0316 µM
[17] = second compound 3.16 µM, first compound 0.1 µM
[18] = second compound 3.16 µM, first compound 0.316 µM
[19] = second compound 3.16 µM, first compound 1 µM
[20] = second compound 3.16 µM, first compound 3.16 µM
[21] = second compound 10 µM, first compound 0.0316 µM
[22] = second compound 10 µM, first compound 0.1 µM
[23] = second compound 10 µM, first compound 0.316 µM
[24] = second compound 10 µM, first compound 1 µM
[25] = second compound 10 µM, first compound 3.16 µM
[26] = second compound 0.1 µM, first compound 0.01 µM
[27] = second compound 0.316 µM, first compound 0.01 µM
[28] = second compound 1 µM, first compound 0.01 µM
[29] = second compound 3.16 µM, first compound 0.01 µM
[30] = second compound 10 µM, first compound 0.01 µM
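Note: spheroids exposed to agents for 7 days before readout.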

Cn1nccc1Nc1nccc(-c2cc3c(s2)C(C)(C)N(CCN2CCOCC2)C3=O)n1 + CC1OCC2(CCN(c3cnc(Sc4ccnc(N)c4Cl)c(N)n3)CC2)C1N
223 nM: IC50 (second compound 1 µM)
191 nM: IC50 (second compound 3.16 µM)
105 nM: IC50 (second compound 10 µM)
330 nM: IC50 (second compound 0.1 µM)
239 nM: IC50 (second compound 0.316 µM)
inactive: viability, T/C [1] 87.4% | viability, T/C [2] 68.4% | viability, T/C [3] 50.4% | viability, T/C [4] 38.2% | viability, T/C [5] 32.8% | viability, T/C (second compound 0.1 µM, first compound 10 µM) 28.8% | viability, T/C [6] 82.8% | viability, T/C [7] 65.9% | viability, T/C [8] 43.2% | viability, T/C [9] 35.7% | viability, T/C [10] 30.7% | viability, T/C (second compound 0.316 µM, first compound 10 µM) 26.6% | viability, T/C [11] 74.9% | viability, T/C [12] 61.7% | viability, T/C [13] 44.8% | viability, T/C [14] 33.3% | viability, T/C [15] 27.2% | viability, T/C (second compound 1 µM, first compound 10 µM) 26% | viability, T/C [16] 64.7% | viability, T/C [17] 59.9% | viability, T/C [18] 42.2% | viability, T/C [19] 28.8% | viability, T/C [20] 25.8% | viability, T/C (second compound 3.16 µM, first compound 10 µM) 24.1% | viability, T/C [21] 57% | viability, T/C [22] 51.4% | viability, T/C [23] 35.9% | viability, T/C [24] 26.6% | viability, T/C [25] 22.4% | viability, T/C (second compound 10 µM, first compound 10 µM) 20.6%

CC(=O)Nc1cccc(-n2c(=O)n(C3CC3)c(=O)c3c(Nc4ccc(I)cc4F)n(C)c(=O)c(C)c32)c1 + CNCc1ccccc1-c1csc(C(C)Nc2nc(C)nc3cc(OC)c(OC)cc23)c1
0.824 nM: IC50 (second compound 0.316 µM)
0.893 nM: IC50 (second compound 0.1 µM)
0.519 nM: IC50 (second compound 1 µM)
inactive: viability, T/C (second compound 0.1 µM, first compound 0.0001 µM) 90.3% | viability, T/C (second compound 0.1 µM, first compound 0.000316 µM) 71.2% | viability, T/C (second compound 0.1 µM, first compound 0.001 µM) 43.9% | viability, T/C (second compound 0.1 µM, first compound 0.00316 µM) 34.7% | viability, T/C [26] 24.7% | viability, T/C [1] 16.2% | viability, T/C (second compound 0.316 µM, first compound 0.0001 µM) 90.4% | viability, T/C (second compound 0.316 µM, first compound 0.000316 µM) 70.2% | viability, T/C (second compound 0.316 µM, first compound 0.001 µM) 43.9% | viability, T/C (second compound 0.316 µM, first compound 0.00316 µM) 30.3% | viability, T/C [27] 20.5% | viability, T/C [6] 12.9% | viability, T/C (second compound 1 µM, first compound 0.0001 µM) 90.8% | viability, T/C (second compound 1 µM, first compound 0.000316 µM) 63.7% | viability, T/C (second compound 1 µM, first compound 0.001 µM) 30.5% | viability, T/C (second compound 1 µM, first compound 0.00316 µM) 20.6%
< 0.1 nM: IC50 (second compound 3.16 µM) | IC50 (second compound 10 µM)
active: viability, T/C [28] 6.76% | viability, T/C [11] 1.59% | viability, T/C (second compound 3.16 µM, first compound 0.0001 µM) 1.26% | viability, T/C (second compound 3.16 µM, first compound 0.000316 µM) 0.83% | viability, T/C (second compound 3.16 µM, first compound 0.001 µM) 0.53% | viability, T/C (second compound 3.16 µM, first compound 0.00316 µM) 0.68% | viability, T/C [29] 0.79% | viability, T/C [16] 1.69% | viability, T/C (second compound 10 µM, first compound 0.0001 µM) 0.21% | viability, T/C (second compound 10 µM, first compound 0.000316 µM) 0.24% | viability, T/C (second compound 10 µM, first compound 0.001 µM) 0.25% | viability, T/C (second compound 10 µM, first compound 0.00316 µM) 0.37% | viability, T/C [30] 0.34% | viability, T/C [21] 0.69%

CC(=O)OC12COC1CC(O)C1(C)C(=O)C(O)C3=C(C)C(OC(=O)C(O)C(NC(=O)OC(C)(C)C)c4ccccc4)CC(O)(C(OC(=O)c4ccccc4)C21)C3(C)C (stereo not given) + CNCc1ccccc1-c1csc(C(C)Nc2nc(C)nc3cc(OC)c(OC)cc23)c1
inactive: viability, T/C [26] 81.2% | viability, T/C [1] 93.5% | viability, T/C [2] 97% | viability, T/C [3] 96.9% | viability, T/C [4] 105% | viability, T/C [5] 104% | viability, T/C [27] 85.6% | viability, T/C [6] 92.2% | viability, T/C [7] 96.2% | viability, T/C [8] 98.9% | viability, T/C [9] 101% | viability, T/C [10] 100% | viability, T/C [28] 84.6% | viability, T/C [11] 97.9% | viability, T/C [12] 104% | viability, T/C [13] 101% | viability, T/C [14] 103% | viability, T/C [15] 105% | viability, T/C [29] 0.36% | viability, T/C [16] 93.9% | viability, T/C [17] 1.4% | viability, T/C [18] 0.54% | viability, T/C [19] 13% | viability, T/C [20] 110%
active: viability, T/C [30] 0.32% | viability, T/C [21] 0.17% | viability, T/C [22] 0.21% | viability, T/C [23] 0.2% | viability, T/C [24] 0.22% | viability, T/C [25] 0.28%
< 10 nM: IC50 (second compound 3.16 µM) | IC50 (second compound 10 µM)
> 3160 nM: IC50 (second compound 0.1 µM) | IC50 (second compound 0.316 µM) | IC50 (second compound 1 µM)

From PubChem BioAssay AID1963861 (Molecular Pharmacology Branch, DTP, NCI, 2024)
